Reference: PubChem BioAssay (NCI)
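The compound was tested at five concentrations on cells cultured in 96-well plates, with a 48-hour exposure period. Definition used: TGI = concentration required for complete inhibition of growth.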

Legend:
Assay in all cases: NCI tumour cell line growth inhibition, 48 h
786-0 renal = tested on: 786-0 renal
UACC-257 melanoma = tested on: UACC-257 melanoma
SK-MEL-2 melanoma = tested on: SK-MEL-2 melanoma
A549 NSCLC = tested on: A549 NSCLC
MALME-3M melanoma = tested on: MALME-3M melanoma
KM12 colon = tested on: KM12 colon
COLO 205 colon = tested on: COLO 205 colon
NCI-H460 lung = tested on: NCI-H460 lung
U251 CNS = tested on: U251 CNS
SF-539 CNS = tested on: SF-539 CNS
HL-60(TB) leukemia = tested on: HL-60(TB) leukemia
SF-295 CNS = tested on: SF-295 CNS
LOX IMVI melanoma = tested on: LOX IMVI melanoma
HCC-2998 colon = tested on: HCC-2998 colon
LXFL 529 NSCLC = tested on: LXFL 529 NSCLC
RXF 393 renal = tested on: RXF 393 renal
CCRF-CEM leukemia = tested on: CCRF-CEM leukemia
UO-31 renal = tested on: UO-31 renal
SK-MEL-28 melanoma = tested on: SK-MEL-28 melanoma
OVCAR-4 ovarian = tested on: OVCAR-4 ovarian
RPMI-8226 leukemia = tested on: RPMI-8226 leukemia
SNB-78 CNS = tested on: SNB-78 CNS
HT29 colon = tested on: HT29 colon
SK-OV-3 ovarian = tested on: SK-OV-3 ovarian
SNB-75 CNS = tested on: SNB-75 CNS
DLD-1 colon = tested on: DLD-1 colon
NCI-H226 lung = tested on: NCI-H226 lung
SF-268 CNS = tested on: SF-268 CNS
OVCAR-5 ovarian = tested on: OVCAR-5 ovarian
HCT-116 colon = tested on: HCT-116 colon
OVCAR-8 ovarian = tested on: OVCAR-8 ovarian
DMS 114 small cell lung = tested on: DMS 114 small cell lung
IGROV1 ovarian = tested on: IGROV1 ovarian
K-562 leukemia = tested on: K-562 leukemia
SN12C renal = tested on: SN12C renal
MOLT-4 leukemia = tested on: MOLT-4 leukemia
NCI-H522 lung = tested on: NCI-H522 lung
KM20L2 colon = tested on: KM20L2 colon
UACC-62 melanoma = tested on: UACC-62 melanoma
M14 melanoma = tested on: M14 melanoma
SW-620 colon = tested on: SW-620 colon
OVCAR-3 ovarian = tested on: OVCAR-3 ovarian
EKVX NSCLC = tested on: EKVX NSCLC
ACHN renal = tested on: ACHN renal
XF 498 CNS = tested on: XF 498 CNS
SNB-19 CNS = tested on: SNB-19 CNS
HOP-18 NSCLC = tested on: HOP-18 NSCLC
NCI-H23 lung = tested on: NCI-H23 lung
TK-10 renal = tested on: TK-10 renal
CAKI-1 renal = tested on: CAKI-1 renal
HOP-62 NSCLC = tested on: HOP-62 NSCLC

## Cc1ccc2[nH]c3c(ncc4[nH]c5ccccc5c43)c2c1
786-0 renal
  TGI: 31.5 µM
UACC-257 melanoma
  TGI: 33.2 µM
SK-MEL-2 melanoma
  TGI: 33.6 µM
A549 NSCLC
  TGI: 32.7 µM
MALME-3M melanoma
  TGI: 33.7 µM
KM12 colon
  TGI: 29.6 µM
COLO 205 colon
  TGI: 34.3 µM
NCI-H460 lung
  TGI: 30.6 µM
U251 CNS
  TGI: 28 µM
SF-539 CNS
  TGI: 30.7 µM
HL-60(TB) leukemia
  TGI: 36.3 µM
SF-295 CNS
  TGI: 30.9 µM
LOX IMVI melanoma
  TGI: 31.6 µM
HCC-2998 colon
  TGI: 30.2 µM
LXFL 529 NSCLC
  TGI: 33.3 µM
RXF 393 renal
  TGI: 27.2 µM
CCRF-CEM leukemia
  TGI: 35.9 µM
UO-31 renal
  TGI: 30.3 µM
SK-MEL-28 melanoma
  TGI: 32 µM
OVCAR-4 ovarian
  TGI: 37.9 µM
RPMI-8226 leukemia
  TGI: 44.3 µM
SNB-78 CNS
  TGI: 32.6 µM
HT29 colon
  TGI: 24 µM
SK-OV-3 ovarian
  TGI: 25.2 µM
SNB-75 CNS
  TGI: 28.5 µM
DLD-1 colon
  TGI: 31 µM
NCI-H226 lung
  TGI: 30.4 µM
SF-268 CNS
  TGI: 32.4 µM
OVCAR-5 ovarian
  TGI: 30.8 µM
HCT-116 colon
  TGI: 30.8 µM
OVCAR-8 ovarian
  TGI: 35.9 µM
DMS 114 small cell lung
  TGI: 31.3 µM
IGROV1 ovarian
  TGI: 29.6 µM
K-562 leukemia
  TGI: 30.2 µM
SN12C renal
  TGI: 30.2 µM
MOLT-4 leukemia
  TGI: 35.2 µM
NCI-H522 lung
  TGI: 39.6 µM
KM20L2 colon
  TGI: 31.8 µM
UACC-62 melanoma
  TGI: 31.7 µM
M14 melanoma
  TGI: 35.8 µM
SW-620 colon
  TGI: 26.7 µM
OVCAR-3 ovarian
  TGI: > 10 µM
EKVX NSCLC
  TGI: 29.3 µM
ACHN renal
  TGI: 30.3 µM
XF 498 CNS
  TGI: 35.8 µM
SNB-19 CNS
  TGI: 31.6 µM
HOP-18 NSCLC
  TGI: 28.1 µM
NCI-H23 lung
  TGI: > 10 µM
TK-10 renal
  TGI: 37.6 µM
CAKI-1 renal
  TGI: 31.6 µM
HOP-62 NSCLC
  TGI: > 10 µM
